Our source for the Ki values is patent publication US10590140B2, “Tetrahydropyrimidodiazepine and dihydropyridodiazepine compounds for treating pain and pain related conditions” (ESTEVE PHARMACEUTICALS, S.A., priority 2016, dated 2020).

SMILES strings stand for the structures.

human α2δ-1 subunit of Cav2.2 calcium channel, sequence (P54289 25-1103): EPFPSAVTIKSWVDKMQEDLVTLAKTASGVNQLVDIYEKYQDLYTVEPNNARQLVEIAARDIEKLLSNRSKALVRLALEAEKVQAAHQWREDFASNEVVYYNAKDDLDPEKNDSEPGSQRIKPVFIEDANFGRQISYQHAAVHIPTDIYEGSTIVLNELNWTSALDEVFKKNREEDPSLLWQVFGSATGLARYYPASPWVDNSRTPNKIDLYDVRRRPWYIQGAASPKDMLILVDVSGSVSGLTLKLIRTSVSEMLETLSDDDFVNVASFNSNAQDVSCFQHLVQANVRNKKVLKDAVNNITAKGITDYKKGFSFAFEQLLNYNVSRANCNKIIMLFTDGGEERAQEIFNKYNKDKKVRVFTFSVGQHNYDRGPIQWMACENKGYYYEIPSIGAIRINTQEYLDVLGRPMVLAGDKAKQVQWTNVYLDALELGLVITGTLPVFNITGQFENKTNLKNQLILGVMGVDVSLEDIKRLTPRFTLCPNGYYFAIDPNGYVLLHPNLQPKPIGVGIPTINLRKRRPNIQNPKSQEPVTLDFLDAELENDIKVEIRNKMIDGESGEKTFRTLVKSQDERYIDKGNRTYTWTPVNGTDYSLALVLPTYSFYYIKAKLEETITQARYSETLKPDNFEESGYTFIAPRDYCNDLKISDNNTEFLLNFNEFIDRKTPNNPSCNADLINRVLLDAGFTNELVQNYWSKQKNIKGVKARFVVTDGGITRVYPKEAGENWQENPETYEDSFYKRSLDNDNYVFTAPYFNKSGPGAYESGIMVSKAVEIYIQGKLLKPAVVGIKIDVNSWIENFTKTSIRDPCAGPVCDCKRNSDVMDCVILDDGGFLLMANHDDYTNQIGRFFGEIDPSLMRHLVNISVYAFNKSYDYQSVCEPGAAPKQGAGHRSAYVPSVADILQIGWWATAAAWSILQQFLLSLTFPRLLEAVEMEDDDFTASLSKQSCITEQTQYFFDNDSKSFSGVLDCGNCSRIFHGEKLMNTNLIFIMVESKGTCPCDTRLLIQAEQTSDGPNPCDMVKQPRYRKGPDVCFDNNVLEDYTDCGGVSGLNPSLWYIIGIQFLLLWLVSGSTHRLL

For this test, the target named is human α2δ-1 subunit of Cav2.2 calcium channel (Homo sapiens (Human), UniProt P54289). The experiment in a line: Binding assay to human α2δ-1 subunit of Cav2.2 calcium channel ([3H]-Gabapentin). The conditions noted are these: binding to α2δ-1, [3H]-Gabapentin; read-out: Ki (nM) α2δ-1. In a few lines:
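[3H]-gabapentin binding, 60 min at 27° C; nonspecific binding defined with 10 μM pregabalin. Terminated by filtration on PEI-presoaked GF/C filters, ice-cold 50 mM Tris-HCl pH 7.4 washes, then scintillation counting.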
As usually defined, the Ki is the dissociation constant of the complex between target and ligand, obtained from inhibition or displacement. For the molecule `CCNc1ncc2c(n1)N(C)CCN(c1cccc(C3CCN(Cc4ccccc4)CC3)c1)C2=O` [Example 259, 6-(3-(1-benzylpiperidin-4-yl)phenyl)-2-(ethylamino)-9-methyl-6,7,8,9-tetrahydro-5H-pyrimido[4,5-e][1,4]diazepin-5-one], the inhibitory constant (Ki) lay in the range of 100 to 500 nM.

As to `CCNc1ncc2c(n1)N(C)CCN(c1cccc(C3CCN(C)CC3)c1)C2=O` [Example 260, 2-(ethylamino)-9-methyl-6-(3-(1-methylpiperidin-4-yl)phenyl)-6,7,8,9-tetrahydro-5H-pyrimido[4,5-e][1,4]diazepin-5-one], the Ki fell in the range of 100 to 500 nM.

On to `CCNc1ncc2c(n1)N(C)CCN(c1cccc(OC(C)CN(C)Cc3ccccc3)c1)C2=O` (centres unmarked) [Example 262, 6-(3-((1-(benzyl(methyl)amino)propan-2-yl)oxy)phenyl)-2-(ethylamino)-9-methyl-6,7,8,9-tetrahydro-5H-pyrimido[4,5-e][1,4]diazepin-5-one], for which the Ki was 500 to 3000 nM.

As to `CCNc1ncc2c(n1)N(C)CCN(c1cccc(OC(C)CN(C)CCc3ccccc3)c1)C2=O` (centres unmarked) [Example 263, 2-(ethylamino)-9-methyl-6-(3-((1-(methyl(phenethyl)amino)propan-2-yl)oxy)phenyl)-6,7,8,9-tetrahydro-5H-pyrimido[4,5-e][1,4]diazepin-5-one], the inhibition constant (Ki) was in the range of 500 to 3000 nM.

As to `CCNc1ncc2c(n1)N(C)CCN(c1cccc(OC3CCN(Cc4ccccc4)C3)c1)C2=O` (centres unmarked) [Example 266, 6-(3-((1-benzylpyrrolidin-3-yl)oxy)phenyl)-2-(ethylamino)-9-methyl-6,7,8,9-tetrahydro-5H-pyrimido[4,5-e][1,4]diazepin-5-one], the Ki lay within 100 to 500 nM.

On to `CCNc1ncc2c(n1)N(C)CCN(c1cccc(OC(CN(C)Cc3ccccc3)C(C)C)c1)C2=O` (centres unmarked) [Example 267, 6-(3-((1-(benzyl(methyl)amino)-3-methylbutan-2-yl)oxy)phenyl)-2-(ethylamino)-9-methyl-6,7,8,9-tetrahydro-5H-pyrimido[4,5-e][1,4]diazepin-5-one], for which the inhibition constant (Ki) is 500 to 3000 nM.

On to `CCNc1ncc2c(n1)N(C)CCN(c1cccc(OC(CN(C)CCc3ccccc3)C(C)C)c1)C2=O` (centres unmarked) [Example 268, 2-(ethylamino)-9-methyl-6-(3-((3-methyl-1-(methyl(phenethyl)amino)butan-2-yl)oxy)phenyl)-6,7,8,9-tetrahydro-5H-pyrimido[4,5-e][1,4]diazepin-5-one], for which the Ki is 500 to 3000 nM.

For `CCNc1ncc2c(n1)N(C)CCN(c1cccc(CCN(C)Cc3ccccc3)c1)C2=O` [Example 269, 6-(3-(2-(benzyl(methyl)amino)ethyl)phenyl)-2-(ethylamino)-9-methyl-6,7,8,9-tetrahydro-5H-pyrimido[4,5-e][1,4]diazepin-5-one], the Ki is 100 to 500 nM.

In the case of `CCNc1ncc2c(n1)N(C)CCN(c1cccc(CCN(C)CCc3ccccc3)c1)C2=O` [Example 270, 2-(ethylamino)-9-methyl-6-(3-(2-(methyl(phenethyl)amino)ethyl)phenyl)-6,7,8,9-tetrahydro-5H-pyrimido[4,5-e][1,4]diazepin-5-one], the Ki lay in the range of 100 to 500 nM.

Take `CCNc1ncc2c(n1)N(C)CCN(c1cccc(COC3(c4ccccc4)CCN(C)CC3)c1)C2=O` [Example 272, 2-(ethylamino)-9-methyl-6-(3-(((1-methyl-4-phenylpiperidin-4-yl)oxy)methyl)phenyl)-6,7,8,9-tetrahydro-5H-pyrimido[4,5-e][1,4]diazepin-5-one]: the Ki lay within 500 to 3000 nM.

With `CCNc1ncc2c(n1)N(C)CCN(c1cccc(-n3cc(CN(C)CCOCCO)nn3)c1)C2=O` [Example 273, 2-(ethylamino)-6-(3-(4-(((2-(2-hydroxyethoxy)ethyl) (methyl)amino)methyl)-1H-1,2,3-triazol-1-yl)phenyl)-9-methyl-6,7,8,9-tetrahydro-5H-pyrimido[4,5-e][1,4]diazepin-5-one], the Ki was in the range of 500 to 3000 nM.
